This passage reports DC50 results from EP4656640A1, “IRAK4 DEGRADER AND USE THEREOF” (Shanghai Qilu Pharmaceutical Research and Development …, priority 2023, dated 2024).

The target in the first assay is T1, IRAK4 (Homo sapiens, UniProt Q9NWZ3).
T1 sequence (Q9NWZ3 1-460): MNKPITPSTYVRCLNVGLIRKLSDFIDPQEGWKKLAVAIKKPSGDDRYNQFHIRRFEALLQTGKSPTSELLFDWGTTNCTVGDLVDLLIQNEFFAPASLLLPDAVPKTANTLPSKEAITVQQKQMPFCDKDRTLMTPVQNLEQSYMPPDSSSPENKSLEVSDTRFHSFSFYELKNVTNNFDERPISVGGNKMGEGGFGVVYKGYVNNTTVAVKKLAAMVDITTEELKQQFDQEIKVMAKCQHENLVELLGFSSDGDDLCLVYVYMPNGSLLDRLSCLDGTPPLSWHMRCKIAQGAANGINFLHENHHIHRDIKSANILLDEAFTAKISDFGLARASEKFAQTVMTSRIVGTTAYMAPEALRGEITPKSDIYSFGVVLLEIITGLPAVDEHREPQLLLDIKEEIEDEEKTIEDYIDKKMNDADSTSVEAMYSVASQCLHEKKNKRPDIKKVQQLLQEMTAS
The experiment in a line: Degradation of IRAK4 in SU-DHL-2 cells (flow cytometry). The format is cell-based. On the set-up: The degradation level of IRAK4 protein in SU-DHL-2 cell line by the compounds was detected by flow cytometry; endogenous in cells; host or cells: SU-DHL-2; OCI-LY3. The settings on record: SU-DHL-2 cells, 24 hours incubation; read-out: SU-DHL-2 DC50. As to the method: The degradation level of IRAK4 protein in SU-DHL-2 cell line by the compounds was detected by flow cytometry.
Step 2: On day 1, the cells were seeded at a density of 2 × 10^5 cells per well in 100 µL in a 96-well plate. The compounds were dissolved in DMSO to a final concentration of 10 mM, and then diluted with culture medium at a 1:5 concentration gradient to prepare 10 concentrations. The diluted solutions were added to the cells to obtain a maximum final concentration of 2 µM. Wells containing cells treated with 0.1% DMSO served as the […] The cells were incubated at 37°C in a 5% CO2 incubator for 24 hours.
Step 3: After centrifugation, the cells were washed with FACS buffer. The cells were stained for viability discrimination using the LIVE/DEAD™ Fixable Blue Dead Cell Stain Kit, and surface staining of monocytes was performed with PE Mouse Anti-Human CD14, followed by incubation at 4°C for 30 minutes.
Step 4: After centrifugation, the cells were washed with FACS buffer. Fix buffer I, equal in volume to the cultured cells, was added, and the cells were fixed at 37°C for 10 minutes.
Step 5: After centrifugation, the cells were washed with FACS buffer. 150 µL of Perm III reagent was added, and the cells were incubated at 4°C for 30 minutes to permeabilize the membranes. After centrifugation, the cells were washed with FACS buffer.
Flow cytometry analysis was performed using a flow cytometer.
The flow cytometry data were analyzed using Flowjo software. Data presentation and DC50 (half-maximal degradation concentration) calculation were performed using Prism 8.0.2 (GraphPad).
As to `Cn1c(=O)n(C2CCC(=O)NC2=O)c2cccc(C#CCOCCN3CCC4(CCC(n5cc(NC(=O)c6cnn7ccc(N8C[C@H]9C[C@@H]8CO9)nc67)c(C(F)F)n5)CC4)CC3)c21` (stereo partly shown) [Example 37], the DC50 was 24 nM.

In the case of `Cn1c(=O)n(C2CCC(=O)NC2=O)c2cccc(C#CCOC3CC(CN4CCC5(CCC(n6cc(NC(=O)c7cnn8ccc(N9C[C@H]%10C[C@@H]9CO%10)nc78)c(C(F)F)n6)CC5)CC4)C3)c21` (stereo partly shown) [Example 40], the DC50 is 33 nM.

Turning to `Cn1c(=O)n(C2CCC(=O)NC2=O)c2cccc(C#CCOC[C@H]3C[C@H]3CN3CCC4(CC3)CC(n3cc(NC(=O)c5cnn6ccc(N7C[C@H]8C[C@@H]7CO8)nc56)c(C(F)F)n3)C4)c21` (relative stereo) [Example 44], the DC50 stood at 5.4 nM.

`Cn1c(=O)n(C2CCC(=O)NC2=O)c2cccc(C#CCOC3CCC(CN4CCC5(CCC(n6cc(NC(=O)c7cnn8ccc(N9C[C@H]%10C[C@@H]9CO%10)nc78)c(C(F)F)n6)CC5)CC4)CC3)c21` (stereo partly shown) [Example 46]: the DC50 is 13 nM.

The same assay, now with this note: read-out: SU-DHL-2 DC50.
With `Cn1c(=O)n(C2CCC(=O)NC2=O)c2cccc(C#CCO[C@H]3CC[C@@H](C(=O)N4CCC5(CC4)CC(n4cc(NC(=O)c6cnn7ccc(N8C[C@H]9C[C@@H]8CO9)nc67)c(C(F)F)n4)C5)CC3)c21` (stereo partly shown) [Example 72], the DC50 came out at 4 nM.

Turning to `Cn1c(=O)n(C2CCC(=O)NC2=O)c2cccc(C#CC(C)(C)N3CC(C(=O)N4CCC5(CC4)CC(n4cc(NC(=O)c6cnn7ccc(N8C[C@H]9C[C@@H]8CO9)nc67)c(C(F)F)n4)C5)C3)c21` (stereo partly shown) [Example 50], the DC50 was 4 nM.

For `COc1cc2nn(C3CCC4(CC3)CCN(CC3CCN(c5ccc6c(c5)C(=O)N(C5CCC(=O)NC5=O)C6=O)CC3)CC4)cc2cc1NC(=O)c1cnn2cccnc12` (stereo not shown) [Example 48], the DC50 was determined as 1 nM.

As for `Cn1c(=O)n(C2CCC(=O)NC2=O)c2cccc(C#CCOC3CCN(CC4CCC5(CC4)CCC(n4cc(NC(=O)c6cnn7ccc(N8C[C@H]9C[C@@H]8CO9)nc67)c(C(F)F)n4)CC5)CC3)c21` (stereo partly shown) [Example 68], the DC50 stood at 24 nM.

On to `Cn1c(=O)n(C2CCC(=O)NC2=O)c2cccc(C#CCN3CCC(CN4CCC5(CC4)CC(n4cc(NC(=O)c6cnn7ccc(N8C[C@H]9C[C@@H]8CO9)nc67)c(C(F)F)n4)C5)CC3=O)c21` (stereo partly shown) [Example 62], for which the DC50 was 1.2 nM.

`Cn1c(=O)n(C2CCC(=O)NC2=O)c2cccc(C#CCOC34CCC(C(=O)N5CCC6(CC5)CC(n5cc(NC(=O)c7cnn8ccc(N9C[C@H]%10C[C@@H]9CO%10)nc78)c(C(F)F)n5)C6)(CC3)CC4)c21` (stereo partly shown) [Example 51]: the DC50 amounted to 7 nM.

`Cn1c(=O)n(C2CCC(=O)NC2=O)c2cccc(C#CC(C)(C)C(=O)N3CCC4(CC3)CC(n3cc(NC(=O)c5cnn6ccc(N7C[C@H]8C[C@@H]7CO8)nc56)c(C(F)F)n3)C4)c21` (stereo partly shown) [Example 70]: the DC50 worked out at 16 nM.

With `Cn1c(=O)n(C2CCC(=O)NC2=O)c2cccc(C#CCO[C@H]3CC[C@H](C(=O)N4CCC5(CC4)CC(n4cc(NC(=O)c6cnn7ccc(N8C[C@H]9C[C@@H]8CO9)nc67)c(C(F)F)n4)C5)CC3)c21` (stereo partly shown) [Example 71], the DC50 was determined as 5 nM.

Take `Cn1c(=O)n(C2CCC(=O)NC2=O)c2cccc(C#CCN3CC[C@H](C(=O)N4CCC5(CC4)CC(n4cc(NC(=O)c6cnn7ccc(N8C[C@H]9C[C@@H]8CO9)nc67)c(C(F)F)n4)C5)C3)c21` (stereo partly shown) [Example 59]: the DC50 is 3 nM.

On to `Cn1c(=O)n(C2CCC(=O)NC2=O)c2cccc(C#CC(C)(C)N3CC[C@@H](C(=O)N4CCC5(CC4)CC(n4cc(NC(=O)c6cnn7ccc(N8C[C@H]9C[C@@H]8CO9)nc67)c(C(F)F)n4)C5)C3)c21` (stereo partly shown) [Example 54], for which the DC50 is 17 nM.

With `Cn1c(=O)n(C2CCC(=O)NC2=O)c2cccc(C#CCOC3CCN(C(=O)N4CCC5(CCC(n6cc(NC(=O)c7cnn8ccc(N9C[C@H]%10C[C@@H]9CO%10)nc78)c(C(F)F)n6)CC5)CC4)CC3)c21` (stereo partly shown) [Example 43], the DC50 amounted to 61 nM.

On to `Cn1c(=O)n(C2CCC(=O)NC2=O)c2cccc(C#CC(C)(C)N3CCC(CN4CCC5(CC4)CC(n4cc(NC(=O)c6cnn7ccc(N8C[C@H]9C[C@@H]8CO9)nc67)c(C(F)F)n4)C5)CC3)c21` (stereo partly shown) [Example 34], for which the DC50 is 21 nM.

`Cn1c(=O)n(C2CCC(=O)NC2=O)c2cccc(C#CCOC3CCN(CC4CCC5(CC4)CC(n4cc(NC(=O)c6cnn7ccc(N8C[C@H]9C[C@@H]8CO9)nc67)c(C(F)F)n4)C5)CC3)c21` (stereo partly shown) [Example 61]: the DC50 was 4 nM.

For `Cn1c(=O)n(C2CCC(=O)NC2=O)c2cccc(C#CCC3CCC(N4CCC5(CC4)CC(n4cc(NC(=O)c6cnn7ccc(N8C[C@H]9C[C@@H]8CO9)nc67)c(C(F)F)n4)C5)CC3)c21` (stereo partly shown) [Example 35], the DC50 came out at 5 nM.

`Cn1c(=O)n(C2CCC(=O)NC2=O)c2cccc(C#CCOC3CC(N4CCC5(CCC(n6cc(NC(=O)c7cnn8ccc(N9C[C@H]%10C[C@@H]9CO%10)nc78)c(C(F)F)n6)CC5)CC4)C3)c21` (stereo partly shown) [Example 38]: the DC50 is 68 nM.

For the compound `Cn1c(=O)n(C2CCC(=O)NC2=O)c2cccc(C#CCN3CC(C(=O)N4CCC5(CC4)CC(n4cc(NC(=O)c6cnn7ccc(N8C[C@H]9C[C@@H]8CO9)nc67)c(C(F)F)n4)C5)C3)c21` (stereo partly shown) [Example 58], the DC50 turned out to be 5 nM.

Take `Cn1c(=O)n(C2CCC(=O)NC2=O)c2cccc(C#CCOC3CN(C(=O)N4CCC5(CCC(n6cc(NC(=O)c7cnn8ccc(N9C[C@H]%10C[C@@H]9CO%10)nc78)c(C(F)F)n6)CC5)CC4)C3)c21` (stereo partly shown) [Example 39]: the DC50 was found to be 17 nM.

Regarding `COc1cc2nn(C3CCC4(CC3)CCN(CC3CCN(c5ccc6c(c5)C(=O)N(C5CCC(=O)NC5=O)C6=O)CC3)CC4)cc2cc1NC(=O)c1cnc2cccnn12` (stereo not shown) [Example 67], the DC50 is 45 nM.

Turning to `Cn1c(=O)n(C2CCC(=O)NC2=O)c2cccc(C#CC(C)(C)N3CC[C@H](C(=O)N4CCC5(CC4)CC(n4cc(NC(=O)c6cnn7ccc(N8C[C@H]9C[C@@H]8CO9)nc67)c(C(F)F)n4)C5)C3)c21` (stereo partly shown) [Example 55], the DC50 came out at 7 nM.

Take `COc1cc2nn(C3CCC4(CC3)CCN(CC3CCN(c5ccc6c(c5)C(=O)N(C5CCC(=O)NC5=O)C6=O)CC3)CC4)cc2cc1C(=O)Nc1cnc2cccnn12` (stereo not shown) [Example 47]: the DC50 amounted to 0.5 nM.

For the compound `Cn1c(=O)n(C2CCC(=O)NC2=O)c2cccc(C#CCOc3ccc(CN4CCC5(CC4)CC(n4cc(NC(=O)c6cnn7ccc(N8C[C@H]9C[C@@H]8CO9)nc67)c(C(F)F)n4)C5)cc3)c21` (stereo partly shown) [Example 57], the DC50 came to 22 nM.

As for `COc1cc2nn(C3CCC4(CC3)CCN(C3CC(OCC#Cc5cccc6c5n(C)c(=O)n6C5CCC(=O)NC5=O)C3)CC4)cc2cc1C(=O)Nc1cnc2cccnn12` (stereo not shown) [Example 64], the DC50 worked out at 1 nM.

Consider `COc1cc2nn(C3CC4(CCN(CC5CC(OCC#Cc6cccc7c6n(C)c(=O)n7C6CCC(=O)NC6=O)C5)CC4)C3)cc2cc1C(=O)Nc1cnc2cccnn12` (stereo not shown) [Example 65], for which the DC50 amounted to 2.8 nM.

`Cn1c(=O)n(C2CCC(=O)NC2=O)c2cccc(C#CCOC3CCC(N4CCC5(CC4)CC(n4cc(NC(=O)c6cnn7ccc(N8C[C@H]9C[C@@H]8CO9)nc67)c(C(F)F)n4)C5)CC3)c21` (stereo partly shown) [Example 33]: the DC50 was 6.5 nM.

The same assay, now with this note: read-out: SU-DHL-2 DC50; SU-DHL-2 cells, 24 hours incubation.
As to `Cn1c(=O)n(C2CCC(=O)NC2=O)c2cccc(C#CCOCC(=O)N3CCC4(CC3)CC(n3cc(NC(=O)c5cnn6ccc(N7C[C@H]8C[C@@H]7CO8)nc56)c(C(F)F)n3)C4)c21` (stereo partly shown) [Example 12], the DC50 amounted to 5 nM.

Consider `Cn1c(=O)n(C2CCC(=O)NC2=O)c2cccc(C#CCOCC3(C(=O)N4CCC5(CC4)CC(n4cc(NC(=O)c6cnn7ccc(N8C[C@H]9C[C@@H]8CO9)nc67)c(C(F)F)n4)C5)CC3)c21` (stereo partly shown) [Example 7], for which the DC50 came to 12 nM.

On to `Cn1c(=O)n(C2CCC(=O)NC2=O)c2cccc(C#CCOC(C)(C)C(=O)N3CCC4(CC3)CC(n3cc(NC(=O)c5cnn6ccc(N7C[C@H]8C[C@@H]7CO8)nc56)c(C(F)F)n3)C4)c21` (stereo partly shown) [Example 10], for which the DC50 was found to be 17 nM.

The target in another assay is T1, IRAK4.
Experiment: not given
The format is cell-based. Also noted: endogenous in cells; host or cells: OCI-LY3. The settings on record: read-out: OCI-LY3 DC50; OCI-LY3 cells.
On to `Cn1c(=O)n(C2CCC(=O)NC2=O)c2cccc(C#CCOCC(=O)N3CCC4(CC3)CC(n3cc(NC(=O)c5cnn6ccc(N7C[C@H]8C[C@@H]7CO8)nc56)c(C(F)F)n3)C4)c21` (stereo partly shown) [Example 12], for which the DC50 stood at 5 nM.

As to `Cn1c(=O)n(C2CCC(=O)NC2=O)c2cccc(C#CCOCC3(C(=O)N4CCC5(CC4)CC(n4cc(NC(=O)c6cnn7ccc(N8C[C@H]9C[C@@H]8CO9)nc67)c(C(F)F)n4)C5)CC3)c21` (stereo partly shown) [Example 7], the DC50 is 10 nM.

For the compound `Cn1c(=O)n(C2CCC(=O)NC2=O)c2cccc(C#CCOC(C)(C)C(=O)N3CCC4(CC3)CC(n3cc(NC(=O)c5cnn6ccc(N7C[C@H]8C[C@@H]7CO8)nc56)c(C(F)F)n3)C4)c21` (stereo partly shown) [Example 10], the DC50 was 13 nM.
